Read-outs that look alike come from different tables or passages of the source. Where no end group is shown, it is not given here.
Key:
[1] = tested on: Human keratinocytes (HaCaT cells); experiment: Cytotoxicity test of the polypeptides on keratinocytes (CCK-8); conditions: in words; for effect on cell growth: compared to the blank group
Protocol: (§3) Human keratinocytes (HaCaT cells, Nanjing Saihongrui Biotechnology Co., Ltd.).
(§4) Cell culture conditions: constant temperature and humidity incubator (37°C, 95% air, 5% carbon dioxide), 90% dulbecco's modified eagle medium (DMEM) high-glucose medium + 10% fetal bovine serum (Nanjing BioChannel Biotechnology Co., Ltd).
(§5) A cell culture flask was taken out from the cell incubator, observed under a microscope, and the cells were in the logarithmic growth phase. In a clean bench, the medium was discarded, the cells were rinsed with 2 mL of phosphate buffer saline (PBS) and discarded; after repeating the above process once, 2 mL of 0.25% trypsin was added for digestion. The digestion was terminated by adding a corresponding volume of serum-containing medium, and the cells were transferred to a 15 mL conical centrifuge tube and centrifuged at 1000 rpm for 5 minutes. The serum-containing medium was resuspended in a resuspension volume of 2 mL. The cells were counted and calculated. The cells were then diluted, and plated; then the diluted cell suspension was taken, then the 96-well plate was paved with 10^4 cells/well, and the edge wells were filled with PBS. The well plate was taken out from the cell incubator, the medium was discarded, the well-plate of the administration group was added with the corresponding drugs and placed into the cell incubator for incubation for 48 hours. On the day of detection, the 96-well plate was taken out from the cell incubator, and added with 10 µL of a CCK-8 reagent per well in the clean bench, and then quickly placed into the cell incubator for 60 minutes, and the absorbance was measured with a microplate reader and the absorbance was measured at OD 450 nm. The average reading of the blank group was taken, and the numerical value of each group was divided by the average value to obtain the change in cell viability. Results are expressed as Mean ± SEM, compared with the blank group, *P<0.05 denotes a significant difference, **P<0.01, ***P<0.001, and ****P<0.0001 denote very significant differences.

[2] = tested on: Human keratinocytes (HaCaT cells)
Protocol: as §3, §4, §5

TNF-α = experiment: Anti-inflammatory activity test on keratinocytes: TNF-α ELISA; type: cell-based, Human; conditions: 10 µM; UVB 30 mJ/cm^2, HaCaT supernatant; blank 2.890, model 10.812; Mean ± SEM
Protocol: (§1) Interleukin-6 ELISA assay kit (Shanghai Beyotime Biotechnology Co., Ltd.); tumor necrosis factor α ELISA assay kit (Shanghai Beyotime Biotechnology Co., Ltd.); 6-well plate (Wuxi NEST Biotechnology Co., Ltd.); and palmitoyl tetrapeptide-7 (Shenzhen Jianyuan Pharmaceutical Technology Co., Ltd.). Other experimental materials and instruments are the same as those in Examples 1, 2, and 3.
(§2) The cells were counted and calculated. […] After 24 hours of incubation, cell UV modeling was performed. The UVB lamp tube was turned on, and the radiation intensity was measured with a UV irradiance meter. When the radiation intensity reached 500 µW/cm^2, the uncovered 6-well plate was placed and irradiated for 1 minute such that the radiation dose was up to 30 mJ/cm^2. At the end of the radiation, the 6-well plate was covered and placed into the cell incubator.

IL-6 = experiment: Anti-inflammatory activity test on keratinocytes: IL-6 ELISA; type: cell-based, Human; conditions: 10 µM; UVB 30 mJ/cm^2, HaCaT supernatant; blank 10.619, model 18.622; Mean ± SEM
Protocol: as §1, §2

LQSSLRALRQMGGGTKAAA [LA-19]
toxicity to keratinocytes [1]: no obvious toxicity to keratinocytes | effect on cell growth [1]: do not significantly inhibit cell growth

TKAAAGGGLQTSLRALRQI [P10]
effect on cell growth [1]: do not significantly inhibit cell growth

TKAAAGGGLQSSLRALRQM [TM-19]
effect on cell growth [1]: slightly inhibit cell growth at low concentrations but promote cell proliferation at high concentrations

Ac-LQTSLRALRQIGGGTKAAA [P9]
effect on cell growth [1]: do not significantly inhibit cell growth

LQSSLRALRQM [P5]
effect on cell growth [2]: do not significantly inhibit cell growth

GGGLQSSLRALRQM [P4]
effect on cell growth [1]: do not significantly inhibit cell growth

LQSSLRALRQMGGGTKAAA-NH2 [P7]
effect on cell growth [1]: do not significantly inhibit cell growth

LQTSLRALRQIGGGTKAAA [P8]
effect on cell growth [1]: do not significantly inhibit cell growth

Ac-LQSSLRALRQMGGGTKAAA [P6]
effect on cell growth [1]: do not significantly inhibit cell growth

palmitoyl tetrapeptide-7
TNF-α activity (pg/mgprot) (TNF-α): 6.832±2.461 pg/mgprot | IL-6 activity (pg/mgprot) (IL-6): 13.901±1.356 pg/mgprot

LQSSLRALRQMGGG [P3]
effect on cell growth [1]: do not significantly inhibit cell growth

TKAAA [Acein, reference compound]
effect on cell growth [1]: do not significantly inhibit cell growth

— EP4725954A1, “MODIFIED PEPTIDES SUCH AS POLYPEPTIDES LA-19 AND TM-19 HAVING ANTI-AGING AND REPAIRING EFFECTS AND USE THEREOF” (Anhui Dexin Huahai Biological Technology Co. Ltd., priority 2023, dated 2025)
